The text below walks through data of US20140024596A1, “DISEASE INHIBITING AGENT” (NITTA GELATIN INC., priority 2010, published 2014).

Non-standard residues stand in square brackets, D forms with d. Residues, ends and D or L forms follow the SMILES beside them. Hyp = O=C(O)[C@@H]1C[C@@H](O)CN1

Data set [1] concerns osteoclast (mouse primary bone marrow cell culture). Nature of the data set: Evaluation Test 1: osteoclast differentiation culture on plastic dish (TRAP-positive multinucleated giant cells). The following applies: final concentration 625 μM, 6 days culture, control (blank) = 100, n = 6. Type of data set: cell-based. The method, then:
Evaluation was made in conformance with an osteoclast differentiation culture method by Kobayashi Y. et al. [J. Bone Miner. Metab. (2004) 22: p. 318-328]. […] As a control, TRAP inhibiting activity when no peptide was added (blank) was also examined.

Data set [2] has as its system osteoclast (precursor cells of osteoclasts and bone marrow stromal cells on ivory piece). Briefly: Evaluation Test 1: Pit assay, osteoclast cultured on ivory piece. The class given is cell-based, mouse. The following applies: control (blank) = 100, n = 6; for Relative number of TRAP-positive multinucleated giant cells (osteoclasts) by cultivation on ivory piece (%): cultured about 1 week on ivory piece; for Relative number of Pit (%): resorption cavities on ivory piece, about 1 week. The method, then:
Further, the inhibition degree of differentiation and activation of osteoclast by each of the peptide molecules, and amino acids was evaluated by the following Pit assay. In brief, the Pi assay in which osteoclast is cultured on an ivory piece was conducted in conformance with Kakudo S, et al J. Bone Miner. Metab. (1996) 14: 129-136. The concrete procedure is as follows. […] Then, after removing the cells from the ivory piece with a silicone rubber policeman, the ivory piece was stained with an acid hematoxylin solution for several minutes. At this time, the number of TRAP staining positive multinucleated giant cells (osteoclast) was counted by TRAP staining, and a relative number with respect to the number of cells in control (blank) was calculated. Then, the Pit number (number of resorption cavity) by osteoclast was counted under a microscope, and the degree of inhibiting osteoclast by each peptide to be tested was indicated by a relative ratio to blank (control).

Another data set in a line: in vivo. Conditions: male, Wistar, rat, po, 215 nmol/10 mL. The method, then: Male Wistar rats (170 g) were fasted overnight before subjected to the experiment.
As a test method, heart and portal vein of each rat were attached with a cannula to make one-directional perfusion.
To a perfusion sample solution (5.0 mL) collected from the portal vein was added 0.5 mL of 30% sulfosalicylic acid and stirred vigorously, and left overnight in a refrigerator. This sample was centrifuged at 3000 rpm for 10 minutes, to remove protein. For the supernatant of centrifugation, an amount of hydroxyproline in 0.5 mL was colorimetrically quantified, and an amount of free-type Hyp was obtained.
Further, 3.0 mL of the supernatant of centrifugation was weighed into a screw-top test tube, and thereto an equivalent amount of concentrated hydrochloric acid was added, and hydrolyzed at 110° C. for 24 hours. After concentrating and drying the resultant in an evaporator, and removing the hydrochloric acid, the solid was dissolved in 5 mL of distilled water, and several drops of a saturated lithium hydroxide solution was added thereto to adjust pH at 5 to 7, and the volume was fixed at 10 mL. For 2 mL of this solution, an amount of hydroxyproline was colorimetrically quantified to obtain a total Hyp amount. The value obtained by subtracting the amount of free-type Hyp before hydrolysis from the total Hyp amount after hydrolysis is an amount of peptide-form Hyp. From this amount of peptide-form Hyp, a quantitative value of absorption of each peptide molecule into rat portal vein perfusate in the test sample was first determined.
In the above description, the colorimetric quantification of the amount of hydroxyproline was conducted by the Firschein and Shill method described concretely in Evaluation test 4.
Also, identification and quantification of OG, PO, Ala-Hyp, and Ser-Hyp were conducted by HPLC analysis and mass spectrometry (LC/MS/MS) as will be described later.
Analysis of the peptide molecules in the perfusate was conducted by reverse-phase HPLC analysis. As a HPLC device, an LCSS-905 system manufactured by JASCO Corporation, consisting of a liquid feeding pump, a degasser, an automatic sampler, a column open, a UV spectrophotometer, a printer, and a system controller was used. As a reverse-phase column, Nova Pak C18 (3.9×150 mm) was used.
A linear gradient mobile phase of a 0.1% TFA-containing acetonitrile-water system was used, and the injection amount of the sample was 70 μL and the flow rate was 1 mL/min.
As a HPLC device, U980HPLC (manufactured by JASCO Corporation) attached with an ODS(C18) column (Mightysil RP-18, 2×250 mm, manufactured by Kanto Chemical Co Ltd) was used. As a mobile phase solvent, a 0.2% formic acid-containing acetonitrile-water system was used, and the concentration of acetonitrile was increased from 0% to 40% over 40 minutes by a linear gradient, and washed with 100% acetonitrile for 10 minutes. The sample injection amount was 10 μL, and the column temperature was 40° C.
MS analysis was conducted by a MS/MS system using a Quattro LC mass spectrophotometer (Micromass, Manchester, UK) according to a four-channel Multiple Reaction Monitoring method. To be more specific, the elute from HPLC was monitored by m/z being [M+H]^+ and by m/s of its fragment ion species. The monitoring was conducted by using [M+H]^+ m/z: 229.1>132.1 for PO, [M+H]^+ m/z: 219.1>132.1 for Ser-Hyp, [M+H]^+ m/z: 203.1>132.1 for Ala-Hyp, and [M+H]^+ m/z: 189.1>86.1 for OG.
The perfusate was treated with sulfosalicylic acid in a final concentration of 3%, to remove protein. The supernatant liquid was lyophilized and 10 mg of a dry powder was dissolved in distilled water, and subjected to a positive ion exchange resin column to obtain an ammonia elution fraction. After removing the solvent, the fraction was dissolved in distilled water and subjected to LC/MS/MS analysis.

On to `O=C(O)[C@@H]1C[C@@H](O)CN1` [Hyp, hydroxyproline], for which, in data set [1], the “Relative area of TRAP-positive multinucleated giant cells (osteoclasts) by cultivation on plastic dish (%)” value came out at 117 ± 13 % and the “Relative number of TRAP-positive multinucleated giant cells (osteoclasts) by cultivation on plastic dish (%)” value is 126 ± 4 %. Further, in data set [2], the “Relative number of TRAP-positive multinucleated giant cells (osteoclasts) by cultivation on ivory piece (%)” value is given as 141 ± 9 % and the “Relative number of Pit (%)” value worked out at 131 ± 11 %.

Compound `N[C@@H](CO)C(=O)N1C[C@H](O)C[C@H]1C(=O)O` [Ser-Hyp] (H-Ser-[Hyp]-OH) had a level at time molar in “in vivo” of 700 nM.

The compound `C[C@H](N)C(=O)N1C[C@H](O)C[C@H]1C(=O)O` [Ala-Hyp] (H-Ala-[Hyp]-OH) registered a level at time molar in the data set “in vivo” of 1200 nM.

As to `O=C(O)CNC(=O)[C@@H]1C[C@@H](O)CN1C(=O)[C@@H]1CCCN1C(=O)CNC(=O)[C@@H]1C[C@@H](O)CN1C(=O)[C@@H]1CCCN1C(=O)CNC(=O)[C@@H]1C[C@@H](O)CN1C(=O)[C@@H]1CCCN1C(=O)CNC(=O)[C@@H]1C[C@@H](O)CN1C(=O)[C@@H]1CCCN1` [(POG)4, (Pro-Hyp-Gly)4] (H-P[Hyp]GP[Hyp]GP[Hyp]GP[Hyp]G-OH), the level at time molar in “in vivo” is 800 nM.

With `NCC(=O)N1CCC[C@H]1C(=O)N1C[C@H](O)C[C@H]1C(=O)NCC(=O)N1CCC[C@H]1C(=O)N1C[C@H](O)C[C@H]1C(=O)NCC(=O)N1CCC[C@H]1C(=O)N1C[C@H](O)C[C@H]1C(=O)NCC(=O)O` [G(POG)3, Gly-(Pro-Hyp-Gly)3] (H-GP[Hyp]GP[Hyp]GP[Hyp]G-OH), in “in vivo”, the level at time molar came to 80 nM.

As for `O=C(O)CNC(=O)[C@@H]1C[C@@H](O)CN1` [OG, Hyp-Gly] (H-[Hyp]-Gly-OH), the level at time molar in “in vivo” was 9800 nM.

Compound `O=C(O)CNC(=O)[C@@H]1C[C@@H](O)CN1C(=O)[C@@H]1CCCN1C(=O)CNC(=O)[C@@H]1C[C@@H](O)CN1C(=O)[C@@H]1CCCN1C(=O)CNC(=O)[C@@H]1C[C@@H](O)CN1C(=O)[C@@H]1CCCN1` [(POG)3, (Pro-Hyp-Gly)3] (H-P[Hyp]GP[Hyp]GP[Hyp]G-OH) yielded a level at time molar in “in vivo” of 900 nM.

In the case of `O=C(O)CNC(=O)[C@@H]1C[C@@H](O)CN1C(=O)[C@@H]1CCCN1C(=O)CNC(=O)[C@@H]1C[C@@H](O)CN1C(=O)[C@@H]1CCCN1` [(POG)2, (Pro-Hyp-Gly)2] (H-P[Hyp]GP[Hyp]G-OH; N-terminus and C-terminus assumed), the level at time molar in “in vivo” stood at 1100 nM.

In the data set “in vivo”, `N=C(N)NCCC[C@H](NC(=O)CNC(=O)[C@@H]1CCCN1C(=O)[C@H](CCCCN)NC(=O)CNC(=O)[C@@H]1CCCN1C(=O)[C@H](Cc1c[nH]cn1)NC(=O)CNC(=O)[C@H](CC(=O)O)NC(=O)[C@H](CCCCN)NC(=O)[C@@H](N)CCC(=O)O)C(=O)N1C[C@H](O)C[C@H]1C(=O)NCC(=O)N[C@@H](CCC(=O)O)C(=O)O` [EKDGHPGKPGROGE] (H-EKDGHPGKPGR[Hyp]GE-OH) displayed a level at time molar of 100 nM.

As to `NCC(=O)N1CCC[C@H]1C(=O)N1C[C@H](O)C[C@H]1C(=O)NCC(=O)N1CCC[C@H]1C(=O)N1C[C@H](O)C[C@H]1C(=O)NCC(=O)O` [G(POG)2, Gly-(Pro-Hyp-Gly)2] (H-GP[Hyp]GP[Hyp]G-OH; N-terminus and C-terminus assumed), in the data set “in vivo”, the level at time molar was determined as 100 nM.

In the case of `O=C(O)[C@@H]1CCCN1` [Pro, proline], in data set [1], the “Relative area of TRAP-positive multinucleated giant cells (osteoclasts) by cultivation on plastic dish (%)” value stood at 125 ± 69% and the “Relative number of TRAP-positive multinucleated giant cells (osteoclasts) by cultivation on plastic dish (%)” value is listed as 119 ± 44%. Also, in data set [2], the “Relative number of TRAP-positive multinucleated giant cells (osteoclasts) by cultivation on ivory piece (%)” value came out at 119 ± 20% and the “Relative number of Pit (%)” value is given as 121 ± 23%.

As for `O=C(O)[C@@H]1C[C@@H](O)CN1C(=O)[C@@H]1CCCN1` [PO, Pro-Hyp] (H-Pro-[Hyp]-OH), in the data set “in vivo”, the level at time molar was 21300 nM.

For the compound `CC(C)C[C@H](NC(=O)[C@H](Cc1c[nH]cn1)NC(=O)CNC(=O)[C@H](CC(=O)O)NC(=O)CNC(=O)[C@@H](N)CCC(=O)O)C(=O)NCC(=O)N[C@@H](CCCCN)C(=O)N1CCC[C@H]1C(=O)NCC(=O)N[C@@H](CCCNC(=N)N)C(=O)N1C[C@H](O)C[C@H]1C(=O)NCC(=O)N[C@@H](CCC(=O)O)C(=O)O` [EGDGHLGKPGROGE] (H-EGDGHLGKPGR[Hyp]GE-OH), the level at time molar in the data set “in vivo” amounted to 100 nM.
